Reference: US6881825B1, “Identication of peptides that facilitate uptake and cytoplasmic and/or nuclear transport of proteins, DNA and virues” (University of Pittsburgh of The Commonwealth System of …, priority 1999, dated 2005)
Where no end group is shown, it is not given here.

Key:
[1] = tested on: arthritic rabbit knee joints; assay: IL-1-induced arthritis, intra-articular peptide, TUNEL/histology and lavage white blood cells; type: in vivo; conditions: arthritic rabbit knees; FIG. 18
Procedure: In addition, the death peptide was administered to rabbits with IL-1-induced arthritis (see Ghivizzani et al. J. Immunol. 159:3604 (1997)). Three arthritic rabbits received the death peptide, three received peptide 5 alone and 3 received the apoptotic protein alone. The rabbits were sacrificed 24 or 72 hours post-injection of the peptides and the rabbit knee capsules were removed for histology analysis and TUNEL staining.

[2] = tested on: MCA205 fibrosarcomas; assay: TUNEL and H&E staining of treated MCA205 fibrosarcomas; type: in vivo, C57BL/6 mice; conditions: 11 days daily treatment, sacrificed three hours after last injection; FIG. 16C
Procedure: (§1) To determine whether the death peptide could induce apoptosis in tumor cells and inhibit tumor growth in vivo, C57BL/6 mice bearing day 7 tumors in each […] (seeded with 1×10^5 MCA205 cells) were injected daily for 10 days with a 50 μl volume of 1 mM death peptide (SEQ ID NO:24; DP1) or the apoptotic peptide alone (SEQ ID NO:23; KLA) or a saline mock into both tumors. Five mice were used in each group. Tumor volume was estimated by multiplying maximum length×width^2. Separately, C57BL/6 with single, day 12 tumors were injected with 1 mM death peptide (SEQ ID NO:24; DP1), apoptotic peptide alone (SEQ ID NO:23; KLA) or saline for eleven days. Ten mice comprised each group. On the final day, the mice were injected with the appropriate saline or peptide solution and sacrificed 3 hours post-injection. Tumors were paraffin-embedded, sectioned, and stained for TUNEL and counterstained with methyl green or stained with hematoxylin and eosin to reveal histologic architecture.
To test whether apoptosis was the mechanism of tumor killing in vivo and to study the effects of death peptide administration on tumor architecture, fibrosarcomas treated daily for 11 days with death peptide (SEQ ID NO:24; DP1), apoptotic peptide alone (SEQ ID NO:23, KLA) or tris buffered saline (TBS) were injected with 50 μl of 1 mM DP1, KLA or TBS on the eleventh day and sacrificed three hours later. […]

[3] = tested on: HIG82 cells; assay: Cell viability by MTT assay (OD 570 nm); type: cell-based, rabbit; conditions: HIG-82 cells; 100-3.1 μM peptide, three hours; FIG. 14, 15
Procedure: 2×10^5 cells (HIG82, MCA205 or Jurkatt) were seeded into 24 well plates. Forty-eight hours later, 100 μM, 50 μM, 25 μM, 6.25 μM and 3.1 μM of the either the death peptide (SEQ ID NO:24), peptide 5 alone (SEQ ID NO:5) or the apoptotic peptide alone (SEQ ID NO:23) was added to the cells. To check for cell viability, three hours later, the media was aspirated and 1 ml of scrum-free media containing 0.25 mg of MTT was added to each well and incubated for 4 hours at 37° C. MTT-containing media was then removed and 1 ml of absolute isopropanol containing 0.4N HCl was added. Photographs were taken of the plates, then the cells were harvested and any debris was centrifuged. OD as taken at λ=570 nm. Each sample point was performed in triplicate.

[4] = tested on: MCA205 tumors; assay: Growth of MCA205 fibrosarcomas under daily intra-tumoral injection; type: in vivo; conditions: repeated administration
Procedure: as §1

Sequence	apoptosis of hyperplastic synovium [1]	apoptosis in tumors (TUNEL staining) [2]	cell viability (MTT, OD570) [3]	side-effects in treated mice [4]
KLAKLAKKLAKLAK (random peptide library)	did not	No TUNEL staining	did not impair viability	–
RRQRRTSKLMKRGGKLAKLAKKLAKLAK [death peptide]	–	–	–	no obvious side-effects
